Structures are written as SMILES.

In the test the test system is Human immunodeficiency virus 1. Briefly: Antiviral activity against HIV1 3B infected in human MT4 cells assessed as protection from cytopathic effect. In kind it is functional, organism-based. The following applies: Human immunodeficiency virus 1, 3B.

Turning to `CCOCn1c(Sc2ccccc2)c(C2CC2)c(=O)[nH]c1=O`, the IC50 stood at 100 nM.

The values are drawn from ChEMBL document CHEMBL3232777, “QSAR models for HEPT derivates as NNRTI inhibitors based on Monte Carlo method” (Eur J Med Chem, 2014).
